Results on seven compounds are retold here after patent US20080175880A1, “Pyridoxal-5-Phosphate And Stent For The Treatment And Prevention Of Atherosclerosis And Restenosis” (MEIDCURE INTERNATIONAL INC., priority 2004, published 2008).

The conditions of data set [1]: cited from earlier work.
For a further data set, the system named is LPS primed THP-1 cells. Put plainly: ATP induced IL-1β secretion, ELISA. Particulars: for inhibition of IL-1β secretion: LPS primed THP-1 cells treated with ATP. It is filed as cell-based. As to the method: LPS primed THP-1 cells are treated with ATP to induced IL-1β secretion (Grahames C B A et-al (1999) Br J Pharm 127:1915-1921). IL-1β secretion levels are determined by ELISA. Various doses of P5P are added to the cells to determine its ability to Inhibit the ATP induced IL-1β secretion. OxATP (Grahames et al., 1999), PPADS (Grahames et al., 1999), and/or KN-62 (Grahames et al., 1999) are used as positive controls.
For orientation: ELISA stands for enzyme-linked immunosorbent assay.

A further data set deals with HEK 293 P2X7 cells. Kind of data set: ATP/BzATP induced apoptosis, Cell Death Detection ELISA. The note with it: for induction of cell apoptosis: P2X7 expressing cells. Format: cell-based, human. On the procedure:
Cell Lines—HEK 293 cell line (human), is stabily transfected with the P2X7 receptor [9] to produce HEK 293 P2X7 cells.
(§1) Apoptosis—HEK-293 P2X7 (human) cells are treated with ATP and/or BzATP to induce apoptosis (Wen et al., 2003). The level of apoptosis is determined using a Cell Death Detection ELISA, which is based on DNA laddering. Various doses of P5P are added to the cells to determine its ability to inhibit ATP induced apoptosis. OxATP (Murgia et al., 1993), PPADS (Chessell I P et al., 1998) and/or KN-62 (Humphreys B D et al., 1998) are used as positive controls.

The nature of data set [2]: Rabbit aortic balloon-injury model. Format: in vivo. Particulars: 10 mg/kg daily by gavage. On the procedure:
Rabbit Aortic Balloon-Injury Model—Forty male New Zealand White rabbits (2.5-3.0 kg) are used. Rabbits are fed regular rabbit chow (control, 20 rabbits) or a 1% cholesterol diet (treated, 20 rabbits) for 8 weeks. Half of each group receives 10 mg/kg P5P (provided by CanAm Bioresearch Inc.) daily by gavage, with the other half receiving saline by gavage. After 4 weeks, a 3F Fogarty embolectomy catheter (Baxter) is inserted into the right femoral artery of each rabbit, advanced 25 cm proximally, and then withdrawn to the origin with the balloon inflated to 0.2 mL saline, a step repeated twice (Lau et al., Probucol promotes functional reendothelialization in balloon-injured rabbit aortas. Circulation 2003; 107(15):2031-6). At 8 weeks, the right and left femoral arteries are harvested from each animal (left femoral arteries serve as uninjured controls). Segments for histology are pressure-perfused with formalin, stored in. 70% (vol/vol) ethanol, and then embedded in paraffin.
Histology—One 5 μm thick cross-section is taken from each of 6 segments of the femoral aorta and stained with hematoxylin and eosin. Morphometric analysis of the 6 arterial cross-sections per animal is performed using Imagespace software (Molecular Dynamics). The intimal and medial areas of each arterial cross-section specimen is measured, and the average intimal/medial area ratio is determined for each group.
Inflammatory Markers, Lipid Profile, and Homocysteine Levels—At the beginning and end of the study, and every 2 weeks throughout, blood samples are collected through a catheter inserted in the ear artery of conscious rabbits. Plasma interleukin-6 (IL-6) levels are measured with quantitative sandwich enzyme immunoassay employing commercial kits for rats (R&D Systems) (Oubina et al., Synergistic effect of angiotensin-converting enzyme (ACE) and 3-hydroxy-3-methylglutaryl-CoA (HMG-CoA) reductase inhibition on inflammatory markers in atherosclerotic rabbits. Clin Sci (Lond). 2003; 105(6):655-62). CRP plasma levels are measured with an immunoassay kit for rabbits (Alpco Diagnostics). Plasma cholesterol levels are measured using colorimetric reactions employing commercial kits (Roche Diagnostics). Homocysteine levels are determined by high performance liquid chromatography, as previously described (Zhloba and Blashko, Liquid chromatographic determination of total homocysteine in blood plasma with photometric detection. J Chromatogr B Analyt Technol Biomed Life Sci. 2004; 800(1-2):275-80).
Evaluation of Endothelial Function by Ultrasound—Ultrasound evaluation of endothelial function of the femoral aorta is performed at the beginning and end of the study, and every 2 weeks throughout (Drolet et al., Early endothelial dysfunction in cholesterol-fed rabbits: a non-invasive in vivo ultrasound study. Cardiovasc Ultrasound. 2004; 2(1):10). Rabbits are sedated using midazolam (0.5 mg/kg), butorphanol (0.5 mg/kg) and ketamine (30 mg/kg) IM. Marginal ear vein and artery are cannulated for drug infusions and arterial blood pressure monitoring, respectively. Heart rate is monitored continuously throughout the procedure. […]
Once the imaging of the aorta is optimal, the animals receive the following drug perfusions I.V. sequentially for 2 minutes each: 1) saline at 1 ml/min; 2) acetylcholine (Ach) at 0.05 μg/ml/min and Ach at 0.5 μg/ml/min. […] Images of the femoral aorta are recorded continuously through the entire procedure on standard S-VHS videotape for off-line analysis. […]

Data set [3] in a line: Double-blind placebo-controlled trial in PCI (angioplasty) patients. Format: in vivo, human. As to the method:
Study Design and Population—The study is a multicenter, double-blind, placebo-controlled, randomized trial. The protocol is approved by institutional review boards prior to commencement. Patients referred for elective percutaneous coronary interventional (PCI) are evaluated 14 days before their scheduled procedures. Eligible patients are asked to provide written informed consent and undergo medical history, physical examination, electrocardiography, hematology, and clinical biochemistry. Patients are eligible if they are scheduled to undergo PCI with or without stenting on one native coronary artery and have one de novo target lesion with luminal narrowing 50%. Subjects who have severe liver disease or serum creatinine 200 μmol/L; myocardial infarction within the past 7 days; left main stenosis >50%; ejection fraction <30%; have had PCI for another lesion in the preceding 6 months; are being treated for a restenotic lesion; or have scheduled atherectomy, brachytherapy, or PCI of a bypass graft before randomization are excluded. A total of 120 patients are enrolled, with 60 randomized to receive P5P and 60 to receive placebo.
The primary endpoint is clinical restenosis requiring target lesion revascularization at six months. The secondary end points are major adverse cardiac events (MACE) including death, myocardial infarction and revascularization.
Randomization and Drug Regimen—Patients are randomly assigned to receive P5P (provided by CanAm Bioresearch Inc.) 750 mg once day or placebo beginning 14 days before scheduled PCI. P5P or matched placebo is administered as 3 tablets given once daily. All patients will also receive an extra dose of P5P or matched placebos on the evening before PCI, according to random treatment assignment. After PCI, all patients are maintained on their assigned study regimen for 4 additional weeks.
PCI and Follow-Up Evaluation—PCI with or without stent placement and post-PCI management will be performed according to current clinical practice. ECGs are obtained before PCI, immediately thereafter, and the morning after PCI. Creatine kinase, creatine kinase-MB fraction, and troponin I are measured on the evening after PCI and the following morning. Patients are discharged after PCI with 4 weeks of the study medication. Aspirin 325 mg/d is given from the time of recruitment and for the entire study duration. All-patients treated with stents also receive clopidogrel 75 mg/d for 30 days after PCI. Patients will return at 1 Month, 3 months and 6 months for clinical evaluation and drug accountability. Patients are assessed for ischemic symptoms and adverse events, whether or not they were related to the study medication or PCI procedure. Blood chemistry values assessed at baseline are measured again at PCI discharge and at follow-up visits. Patients are readmitted for follow-up catheterization and IVUS 5 to 7 months after PCI. […]
IVUS Examinations and Measurements—IVUS examinations are performed with 30-MHz, 3.2 F ultrasound catheters (Tardif et al., Canadian Antioxidant Restenosis Trial (CART-1) Investigators. Effects of AGI-1067 and probucol after percutaneous coronary interventions. Circulation. 2003; 107(4):552-8). IVUS studies are recorded before, PCI whenever possible and are always performed after PCI (after final balloon inflation) and at follow-up (before any subsequent intervention). […] The preintervention, post-PCI, and follow-up studies are analyzed side by side. […]

Data set [4] deals with hepatic cytochrome enzymes. Put plainly: Inhibition of hepatic cytochrome enzymes. Format: in vitro ADME.
Data set [5] is described as follows: Tolerability and toxicity in animal and human studies. It is filed as in vivo.
The test system of data set [6] is freshly isolated adult rat cardiomyocytes. Particulars: previous finding of the inventors (refs 89, 93); cited from earlier work.
The test system of data set [7] is isolated perfused rat hearts. Particulars: previous finding of the inventors (refs 89, 90); cited from earlier work.
A further data set relates to human platelet. Particulars: cited from earlier work.
A further data set concerns wild type HEK 293 cells. Put plainly: ATP/BzATP induced apoptosis in wild type control cells. It is filed as cell-based, human. The note with it: wild type cells without P2X7. On the procedure:
as §1
Control—All the experiments are carried out in wild type HEK 293 cells as a control.

The mark [8] stands for this setting: 750 mg once a day from 14 days before to 4 weeks after PCI.

In the case of `Cc1ncc(CO)c(CO)c1O` [pyridoxine], in [1] (atherosclerotic patients (ref 16)), the “plasma antithrombin III (AT III) activity” value was “significantly increased”. Moreover, the “AT III activity” value in data set [1] (patients with genetic homocysteinuria (ref 125)) is reported as “increase”. The bleeding time result in [1] (patients, 100 mg twice daily for 15 days (ref 124)) is given as “significantly prolonged”. The “platelet aggregation induced with ADP or epinephrine” value in data set [1] (plasma from patients, 100 mg twice daily for 15 days (ref 124)) was “significantly inhibited”.
For the compound `Nc1ncnc2c1ncn2[C@@H](C=O)O[C@@H](C=O)COP(=O)(O)OP(=O)(O)OP(=O)(O)O` [OxATP], the “inhibition of IL-1β secretion” value in the data set on LPS primed THP-1 cells is on record as “inhibits”.
Consider `Cc1ncc(COP(=O)(O)O)c(C=O)c1O` [P5P, Pyridoxal-5′-phosphate], for which the “inhibition of ATP mediated cell apoptosis” value with HEK 293 P2X7 cells (P2X7 expressing HEK 293 cells, vs untreated cells) is recorded as “inhibits”. For the same compound, in the data set on LPS primed THP-1 cells, the “inhibition of IL-1β secretion” value is reported as “inhibits”. In addition, in data set [2] (8 weeks), the CRP levels result is listed as “lowered”, the homocysteine levels result is given as “lowered” and the lipid profile result is “improved”. Moreover, the incidence of restenosis result in data set [2] (balloon injury) is on record as “decreased incidence”. In addition, in [2] (ultrasound), the endothelial function entry was “improved”. In data set [3] (setting [8]), the CRP levels entry is “lowered”, the homocysteine levels result is given as “lowered”, the “incidence of restenosis following PCI” value is recorded as “decreased incidence” and the lipid profile entry was “improved”. The endothelial function result in data set [3] (750 mg once a day, brachial artery ultrasound) was “improved”. In addition, the “inhibition of hepatic cytochrome enzymes” value in data set [4] was “does not inhibit”. Further, in [5], the tolerability entry is listed as “easily tolerated” and the toxicity entry is reported as “low toxicity”. For the same compound, the “inhibition of ATP induced calcium influx” value in data set [6] is reported as “inhibits”. The “inhibition of positive inotropic effects of ATP” value in [7] is “inhibits”. For the same compound, the “inhibition of prostaglandin E1 and theophylline-induced platelet aggregation” value in the data set with human platelet (in vitro (ref 123)) is listed as “inhibit”. Moreover, the “inhibition of platelet aggregation and 14C-5HT release” value in the data set on human platelet (induced by ADP, thrombin, adrenaline, platelet activating factor, arachidonic acid, in vitro (ref 122)) is “inhibit”. Further, the “inhibition of thromboxane B2 generation” value with human platelet (induced by all of these agents except arachidonic acid (ref 122)) is on record as “inhibited”.
Consider `Nc1ncnc2c1ncn2[C@@H]1O[C@H](COP(=O)(O)OP(=O)(O)OP(=O)(O)O)[C@@H](O)[C@H]1O` [ATP, adenosine triphosphate], for which the “induction of cell apoptosis” value is on record as “induce” in the data set on HEK 293 P2X7 cells and “do not induce” in the data set with wild type HEK 293 cells. Also, in the data set on LPS primed THP-1 cells (LPS primed THP-1 cells), the “induction of IL-1β secretion” value is reported as “induces”.
Turning to BzATP, the “induction of cell apoptosis” value is listed as “induce” in the data set with HEK 293 P2X7 cells and “do not induce” with wild type HEK 293 cells.
On to `Cc1nc(N=Nc2ccc(S(=O)(=O)O)cc2S(=O)(=O)O)c(COP(=O)(O)O)c(C=O)c1O` [PPADS], for which the “inhibition of IL-1β secretion” value in the data set with LPS primed THP-1 cells is “inhibits”.
In the case of `CN([C@@H](Cc1ccc(OS(=O)(=O)c2cccc3cnccc23)cc1)C(=O)N1CCN(c2ccccc2)CC1)S(=O)(=O)c1cccc2cnccc12` [KN-62], the “inhibition of IL-1β secretion” value in the data set on LPS primed THP-1 cells was “inhibits”.
